Experimental data taken from article PMC9814544 (Communications Chemistry, 2020).
Several values for one entry are separate records, joined by “and”; a condition that tells them apart may be missing. Identical values can stand only once. Like-named read-outs stand apart in the source and are kept apart here.

Columns and labels:
[1] = Metabolic stability in mouse liver microsomes; type: in vitro ADME; conditions: in vitro clearance as % hepatic blood flow, n = 1
Protocol: (§1) The metabolic degradation of the test compound is assayed at 37 °C with microsomes. The final incubation volume of 100 µl per time point contains TRIS buffer pH 7.6 at RT (0.1 M), magnesium chloride (5 mM), microsomal protein (1 mg/ml or 0.5 mg/ml depending on species) and the test compound at a final concentration of 1 µM.
(§2) Following a short preincubation period at 37 °C, the reactions were initiated by addition of beta-nicotinamide adenine dinucleotide phosphate, reduced form (NADPH, 1 mM) and terminated by transfering an aliquot into solvent after different time points. The quenched incubations are pelleted by centrifugation (10000 g, 5 min). An aliquot of the supernatant is assayed by LC-MS/MS for the amount of parent compound. The slope of the semi logarithmic plot of the concentration-time profile determines the half-life. The clearance is calculated by upscaling considering the amount of protein in the incubation, microsomal recovery and liver weight and normalized to the hepatic blood flow of the respective species. The number of experiments for BI-0115 is n = 1.

LOX129 (LOX-1 129-273) = target: T1, LOX129 (LOX-1 129-273) (Homo sapiens, UniProt P78380); assay: Surface plasmon resonance, immobilized LOX129; type: binding
T1 construct: 6His-tag with thrombin cleavage site (N, cleaved yes); made in house; host or cells: E. coli SHuffle cells (New England BioLabs), pET28a
Protocol: To enable surface plasmon resonance spectroscopy (SPR), LOX129 was immobilized on a SPR chip by amine coupling and compounds were analyzed for binding. Based on the individual sensorgrams the compounds were classified as non-binders, over-stoichiometric binders or dose-dependent binders. In total four different structural classes could be confirmed as dose-dependent and stoichiometric binders. […] The mean binding ratio is 0.78 (Supplementary Table 3). Assuming a high percentage of active, binding competent protein on the chip surface, this ratio represents less than one BI-0115 molecule per LOX-1 monomer.
Binding studies were performed using a Biacore T200 instrument (GE Healthcare) at 25 °C in 20 mM HEPES pH 6.8, 150 mM NaCl, 0.05% Tween 20, and 1% DMSO at a flow rate of 30 μL/min. The interaction analyses were performed in the multi-cycle kinetic mode using 120 s association time and 600 s dissociation time at the following LOX-1 inhibitor concentrations 0.391, 0.78, 1.56, 3.125, 6.25, 12.5 and 25 µM. Data were analyzed using the Biacore T200 Evaluation Software 2.0. Due to a transient binding, the KD was determined from a plot of steady state response levels against analyte concentration (affinity plot). The mean KD value was determined from four individual experiments (Supplementary Table 3). The binding ratio is the average number of compound molecules bound per LOX-1 protein on the surface.

LOX129 (LOX-1) = system: T2, LOX129 (LOX-1); assay: Native ESI-MS of LOX-1 with ligand; type: binding, human; conditions: Vc = 60V; up to 10 eq ligand
T2 construct: 6His-tag with thrombin cleavage site (N, cleaved yes); made in house; host or cells: E. coli SHuffle cells (New England BioLabs), pET28a
Protocol: This is in agreement with the biophysical data obtained so far. The ITC measurements gave a stoichiometry of protein:ligand of 1.8 which fits to multiples of a 2:1 complex. To confirm that the crystallographically observed tetrameric arrangement exists also in solution native Electrospray-Ionization Mass Spectrometry (ESI-MS) analysis was used. A MS experiment using covalent dimeric LOX129 under denaturing conditions was performed giving a mass of 33773 Da, corresponding to a mass difference of 13 Da to the theoretical molecular weight of 33786 Da (Supplementary Fig. 9). This mass difference corresponds to the three intramolecular and the one intermolecular disulfide bonds (14 Da). MS analysis under non denaturing conditions (Fig. 4a) measured LOX129 mainly as a dimer. Only traces of the tetrameric state were detectable. A binding experiment of BI-0115 to LOX-1 was performed using soft MS tuning parameters (Vc = 40V) in order to maintain BI-0115 interactions in the gas phase.
Mass spectrometry experiments were carried out on an electrospray time-of-flight mass spectrometer (LCT, Waters, Manchester, UK) equipped with an automated chip-based nanoESI device (Triversa Nanomate, Advion Biosciences, Ithaca, NY). […]

[2] = Metabolic stability in rat liver microsomes; type: in vitro ADME; conditions: in vitro clearance as % hepatic blood flow, n = 1
Protocol: as §1, §2

[3] = Metabolic stability in human liver microsomes; type: in vitro ADME; conditions: in vitro clearance as % hepatic blood flow, n = 1
Protocol: as §1, §2

micr. Stab mLM [1]: 95 %QH
SPR binding kinetics (LOX129 (LOX-1 129-273); in words): fast binding kinetics
SPR binding ratio (LOX129 (LOX-1 129-273); mean of n = 4, compound molecules bound per LOX-1 protein on the surface): 0.78
Kd (LOX129 (LOX-1 129-273); mean of n = 4, steady-state fit, 25 °C, read-out: SPR Kd): 4.32 µM and 4.3 µM
SPR binding ratio, individual measurements (LOX129 (LOX-1 129-273); measurements 1-4, Supplementary Table 3): 0.79 and 0.84 and 0.73 and 0.77
Kd (LOX129 (LOX-1 129-273); measurements 1-4, Supplementary Table 3, read-out: SPR KD, individual measurements): 3.8 µM and 4.6 µM and 4.12 µM and 4.76 µM
micr. Stab rLM [2]: 95 %QH
micr. Stab hLM [3]: 77 %QH
Structure (SMILES): CCCN1C(=O)c2ccc(Cl)cc2Nc2ncccc21 [BI-0115]
ligand induced tetramerization, increase of the 16+ charge state (LOX129 (LOX-1)): up to 33%
